From article PMC9032233, “2-{5-[(Z,2Z)-2-Chloro-3-(4-nitrophenyl)-2-propenylidene]-4-oxo-2-thioxothiazolidin-3-yl}-3-methylbutanoic Acid as a Potential Anti-Breast Cancer Molecule” (International Journal of Molecular Sciences, 2022)
Read-outs that look alike come from different tables or passages of the source.

How the values were obtained:
[1] = tested on: MCF-7 cancer cells; assay: [3H]-thymidine incorporation assay, MCF-7; type: cell-based; details: Homo sapiens
Experimental: (§1) The antiproliferative properties of the newly synthesized compound were investigated through the [^3H]-thymidine incorporation assay, as described in the literature. Cells culture was exposed to various concentrations of Les-3331 acid and reference drug for 24 h. Thereafter, cells were washed with PBS and 1 mL of fresh medium was added to each well. Then, 0.5 µCi of radioactive [^3H]-thymidine was appended, and the incubation continued for four hours. After the following incubation, the liquid was aspirated and the plate was placed on ice. Cells were washed twice with 1 mL of 0.05 M Tris-HCl buffer comprising 0.11 M NaCl, then twice after that with 1 mL of 5% TCA acid (Stanlab, Lublin, Poland). Finally, the cells were dissolved with 1 mL of 0.1 M NaOH with 1% SDS (Sigma-Aldrich, St. Louis, MO, USA) at room temperature (RT). The resulting cell lysates were transferred into scintillation vials containing 2 mL of scintillation fluid. The radioactivity was determined using Scintillation Counter 1900 TR, TRI-CARB (Packard, Perkin Elmer, Inc., San Jose, CA, USA). The intensity of DNA biosynthesis in cells was expressed in dpm of radioactive thymidine incorporated in the DNA. The radioactivity observed in untreated control cells was taken as 100%. Values from the tested compounds were expressed as a percentage of the control value.

[2] = tested on: MDA-MB-231 cells; assay: [3H]-thymidine incorporation assay, MDA-MB-231; type: cell-based; details: Homo sapiens
Experimental: as §1

[3] = tested on: MCF-7 cells; assay: Mitochondrial membrane potential analysis (JC-1), MCF-7; type: cell-based, human; details: 24 h
Experimental: (§2) The JC-1 MitoScreen kit (BD Biosciences, San Diego, CA, USA) was used for the mitochondrial membrane potential (ΔΨm) analysis. The assay was performed using a flow cytometer (BD FACSCanto II, Becton Dickinson Biosciences Systems, San Jose, CA, USA). The Les-3331 and reference drug were used in 1 µM and 5 µM concentrations. After 24 h incubation with tested compounds, the assay was performed as described in the literature. Analysis of the obtained results was performed using FACSDiva software (version 6.1.3, BD Biosciences Systems, San Jose, CA, USA). The equipment was calibrated with BD Cytometer Setup and Tracking Beads (BD Biosciences, San Diego, CA, USA).

[4] = tested on: MDA-MB-231 cells; assay: Mitochondrial membrane potential analysis (JC-1), MDA-MB-231; type: cell-based, human; details: 24 h
Experimental: as §2

[5] = tested on: caspase-9; assay: Caspase-9 concentration in MDA-MB-231 cell lysates (ELISA); type: cell-based, human; details: 24 h, control 65.073 ng/mL
Experimental: (§3) High sensitivity assay kits (EIAab Science Co., Ltd., Wuhan, China; Abcam plc., Cambridge, United Kingdom; Cloud-Clone Corp., Katy, TX, USA) were used to determine the concentrations of selected proteins in cell lysates after 24 h incubation with novel compound and reference drug in 1 µM and 5 µM concentrations. In brief, after trypsinization, cells were washed thrice with cold PBS and centrifuged at 1000× g for 5 min at 4 °C. Then, cells (1.5 × 10^6) were suspended in lysis buffer for whole-cell lysates. After the second centrifugation, cellular supernatants were frozen immediately at −70 °C. Untreated cancer cells were taken as a control.
(§4) The microtiter plates provided in the kits were pre-coated with an antibody specific to the analyzed antigen. The tests were carried out according to the manufacturer’s protocols.

[6] = tested on: caspase-8; assay: Caspase-8 concentration in MCF-7 cell lysates (ELISA); type: cell-based, human; details: 24 h, control 0.901 ng/mL
Experimental: as §3, §4

[7] = tested on: caspase-8; assay: Caspase-8 concentration in MDA-MB-231 cell lysates (ELISA); type: cell-based, human; details: 24 h, control 0.828 ng/mL
Experimental: as §3, §4

[8] = tested on: LC3B; assay: LC3B concentration in MDA-MB-231 cell lysates (ELISA); type: cell-based, human; details: 24 h, control 1.504 ng/mL
Experimental: as §3, with “after 24 h incubation with novel compound and reference drug in 1 µM and 5 µM concentrations.” left out
as §4

[9] = tested on: Beclin-1; assay: Beclin-1 concentration in MDA-MB-231 cell lysates (ELISA); type: cell-based, human; details: 24 h, control 3.605 ng/mL
Experimental: as §3, with “after 24 h incubation with novel compound and reference drug in 1 µM and 5 µM concentrations.” left out
as §4

[10] = tested on: topoisomerase II; assay: Topoisomerase II concentration in MCF-7 cell lysates (ELISA); type: cell-based, human; details: 24 h, control 2.260 ng/mL
Experimental: as §3, §4

| IC50 ([1]; MCF7, MCF-7, 24 h incubation, read-out: IC50, cell proliferation ([3H]-thymidine incorporation)) [µM] | IC50 ([2]; MDA-MB-231, 24 h incubation, read-out: IC50, cell proliferation ([3H]-thymidine incorporation)) [µM] | SMILES | IC50 ([1]; MCF7, read-out: IC50, cell proliferation ([3H]-thymidine incorporation)) [µM] | IC50 ([2]; MDA-MB-231, read-out: IC50, cell proliferation ([3H]-thymidine incorporation)) [µM] | % of cells with decreased ΔΨm ([3]; MCF-7, 1 µM) [%] | % of cells with decreased ΔΨm ([3]; MCF-7, 5 µM) [%] | % of cells with decreased ΔΨm ([4]; MDA-MB-231, 1 µM) [%] | % of cells with decreased ΔΨm ([4]; MDA-MB-231, 5 µM) [%] | Casp-9 concentration ([5]; MDA-MB-231, 1 µM) [ng/mL] | Casp-9 concentration ([5]; MDA-MB-231, 5 µM) [ng/mL] | Casp-8 concentration ([6]; 1 µM) [ng/mL] | Casp-8 concentration ([6]; 5 µM) [ng/mL] | Casp-8 concentration ([7]; MDA-MB-231, 1 µM) [ng/mL] | Casp-8 concentration ([7]; MDA-MB-231, 5 µM) [ng/mL] | LC3B concentration ([8]; MDA-MB-231, 1 µM) [ng/mL] | LC3B concentration ([8]; MDA-MB-231, 5 µM) [ng/mL] | Beclin-1 concentration ([9]; MDA-MB-231, 1 µM) [ng/mL] | Top II concentration ([10]; MCF-7, 1 µM) [ng/mL] | Top II concentration ([10]; MCF-7, 5 µM) [ng/mL] | Beclin-1 concentration ([9]; MDA-MB-231, 5 µM) [ng/mL] |
| --- | --- | --- | --- | --- | --- | --- | --- | --- | --- | --- | --- | --- | --- | --- | --- | --- | --- | --- | --- | --- |
| – | – | CC(C)C(C(=O)O)N1C(=O)/C(=C/C(Cl)=C/c2ccc([N+](=O)[O-])cc2)SC1=S (centres unmarked) [Les-3331, 2-{5-[(Z,2Z)-2-chloro-3-(4-nitrophenyl)-2-propenylidene]-4-oxo-2-thioxothiazolidin-3-yl}-3-methylbutanoic acid] | 5.54 | 8.01 | 9.8 | 25.5 | 21.8 | 36.3 | 84.300 | 92.523 | 1.050 | 1.253 | 1.012 | 1.067 | 1.178 | 0.996 | 3.007 | 0.900 | 0.625 | – |
| > 20 | > 20 | COc1cc([C@@H]2c3cc4c(cc3[C@@H](O[C@@H]3O[C@@H]5CO[C@@H](C)O[C@H]5[C@H](O)[C@H]3O)[C@H]3COC(=O)[C@H]23)OCO4)cc(OC)c1O [Etoposide, reference compound] | – | – | 10.2 | 18.5 | 11.4 | 15.6 | 86.953 | 93.620 | 0.812 | 0.951 | 0.836 | 0.857 | 0.784 | 0.615 | 3.442 | 1.587 | 1.443 | 3.004 |
